Data reported in PMC5327383, “Pneumococcal galactose catabolism is controlled by multiple regulators acting on pyruvate formate lyase” (Scientific Reports, 2017).
Where a name gives a salt, the structure may show the parent alone.

Biological target: CcpA (Streptococcus pneumoniae, UniProt A0A0H2ZQ65)
Conditions: 10 mM; room temperature; raises DNA affinity; direct binding of formate not shown

Sequence of CcpA (A0A0H2ZQ65 entry or part of it): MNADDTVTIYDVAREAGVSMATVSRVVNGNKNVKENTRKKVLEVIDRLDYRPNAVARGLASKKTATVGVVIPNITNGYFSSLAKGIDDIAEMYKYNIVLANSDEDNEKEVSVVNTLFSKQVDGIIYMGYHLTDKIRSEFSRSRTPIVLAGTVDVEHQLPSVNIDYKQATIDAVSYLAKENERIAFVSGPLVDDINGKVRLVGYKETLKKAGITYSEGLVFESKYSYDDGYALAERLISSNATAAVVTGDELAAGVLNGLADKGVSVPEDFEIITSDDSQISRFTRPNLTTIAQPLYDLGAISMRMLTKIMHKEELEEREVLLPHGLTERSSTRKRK

**Q.** For `O=CO` [sodium formate], which “EMSA with pflB promoter DNA, protein preincubated with compound” value is on record?
**A.** formate enhanced the binding of CcpA to PpflB
